The source of these data is patent publication US11596639B2, “Substituted indole Mcl-1 inhibitors” (Vanderbilt University, priority 2016, dated 2023).

Structures are written as SMILES. Where two headings read alike, the source gives them in different places.

For test [1], the system named is H929 human cancer cell lines. Nature of the test: Cellular viability / proliferation (Cell TiterGlo, 72 h). The class given is cell-based. The essentials:
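H929 cells plated at 1,000/well in 10% FBS medium received a 2-fold serial compound dilution (top 50 μM, DMSO <1%) 24 h later. After 72 h, viability was read by CellTiter-Glo luminescence. IC50 came from a four-parameter fit.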

A further test addresses Mcl-1 (Homo sapiens (Human), UniProt Q07820). In words: Fluorescence polarization anisotropy (FPA) competition assay, FITC-Bak or FITC-Bim BH3 peptide. The class given is binding. As to conditions: read-out: Ki for Inhibition of Mcl-1 by FPA assay.
The mark [2] stands for this setting: Homo sapiens, NCI-H929, 72 h, read-out: GI50 on cellular proliferation of H929 human cancer cell lines, H929 cells, 72 h, Cell TiterGlo, 10% FBS.

Chain of Mcl-1 (Q07820 172-327): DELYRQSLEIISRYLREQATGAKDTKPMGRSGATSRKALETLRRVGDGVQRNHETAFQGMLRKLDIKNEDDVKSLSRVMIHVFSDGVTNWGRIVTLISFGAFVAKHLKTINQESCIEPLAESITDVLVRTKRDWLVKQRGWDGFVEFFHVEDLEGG

By Ki is commonly meant a dissociation constant, usually derived from enzyme kinetics or from competition with a known ligand. Consider `Cc1cc(OCCCc2c3n(c4c(-c5c(C)nn(C)c5C)c(Cl)ccc24)[C@H](C)CN(c2cn(C)c4ccc(-c5cnccn5)cc24)C3=O)cc(C)c1Cl` [Example 430, (R)-7-Chloro-10-(3-(4-chloro-3,5-dimethylphenoxy)propyl)-4-methyl-2-(1-methyl-5-(pyrazin-2-yl)-1H-indol-3-yl)-6-(1,3,5-trimethyl-1H-pyrazol-4-yl)-3,4-dihydropyrazino[1,2-a]indol-1(2H)-one], for which, in test [1] (setting [2]), the GI50 was determined as 1.4 µM. Also, the inhibition constant Ki on Mcl-1 is 0.0019 µM.
Regarding `Cc1cc(OCCCc2c3n(c4c(-c5c(C)nc(CN6CCN(C)C(=O)C6)nc5C)c(Cl)ccc24)[C@H](C)CN(c2cn(C)c4ccc(C(=O)O)cc24)C3=O)cc(C)c1Cl` [Example 432, (R)-3-(7-Chloro-10-(3-(4-chloro-3,5-dimethylphenoxy)propyl)-6-(4,6-dimethyl-2-((4-methyl-3-oxopiperazin-1-yl)methyl)pyrimidin-5-yl)-4-methyl-1-oxo-3,4-dihydropyrazino[1,2-a]indol-2(1H)-yl)-1-methyl-1H-indole-5-carboxylic acid], the GI50 in test [1] (setting [2]) was found to be 0.21 µM. In addition, at Mcl-1, the inhibitory constant (Ki) was less than 0.001 µM.
For `CC(=O)N1CCN(Cc2nc(C)c(-c3c(Cl)ccc4c(CCCOc5cc(C)c(Cl)c(C)c5)c5n(c34)[C@H](C)CN(c3cn(C)c4ccc(C(=O)O)cc34)C5=O)c(C)n2)CC1` [Example 433, (R)-3-(6-(2-((4-Acetylpiperazin-1-yl)methyl)-4,6-dimethylpyrimidin-5-yl)-7-chloro-10-(3-(4-chloro-3,5-dimethylphenoxy)propyl)-4-methyl-1-oxo-3,4-dihydropyrazino[1,2-a]indol-2(1H)-yl)-1-methyl-1H-indole-5-carboxylic acid], the GI50 in test [1] (setting [2]) came to 0.44 µM. Further, the inhibition constant Ki on Mcl-1 amounted to 0.0017 µM.
With `Cc1cc(OCCCc2c3n(c4c(-c5c(C)nn(C)c5C)c(Cl)ccc24)[C@H](C)CN(c2cccc4cc5n(c24)CCNC5=O)C3=O)cc(C)c1Cl` [Example 434, (R)-7-Chloro-10-(3-(4-chloro-3,5-dimethylphenoxy)propyl)-4-methyl-6-(1,3,5-trimethyl-1H-pyrazol-4-yl)-3,3′,4,4′-tetrahydro-1H-[2,6′-bipyrazino[1,2-a]indole]-1,1′(2′H)-dione], the GI50 in test [1] (setting [2]) was 0.89 µM. On Mcl-1, the inhibitory constant (Ki) was 0.0055 µM.
For `Cc1cc(OCCCc2c3n(c4c(-c5c(C)nn(C)c5C)c(Cl)ccc24)[C@H](C)CN(c2ccc(Cl)c4c(C(=O)O)cn(C)c24)C3=O)cc(C)c1Cl` [Example 435, (R)-4-Chloro-7-(7-chloro-10-(3-(4-chloro-3,5-dimethylphenoxy)propyl)-4-methyl-1-oxo-6-(1,3,5-trimethyl-1H-pyrazol-4-yl)-3,4-dihydropyrazino[1,2-a]indol-2(1H)-yl)-1-methyl-1H-indole-3-carboxylic acid], in test [1] (setting [2]), the GI50 worked out at 0.57 µM. The Ki at Mcl-1 was less than 0.001 µM.
With `COc1cc(N2C[C@@H](C)n3c(c(CCCOc4cc(C)c(Cl)c(C)c4)c4ccc(Cl)c(-c5c(C)nn(C)c5C)c43)C2=O)c2c(c1)c(C(=O)O)cn2C` [Example 436, (R)-7-(7-Chloro-10-(3-(4-chloro-3,5-dimethylphenoxy)propyl)-4-methyl-1-oxo-6-(1,3,5-trimethyl-1H-pyrazol-4-yl)-3,4-dihydropyrazino[1,2-a]indol-2(1H)-yl)-5-methoxy-1-methyl-1H-indole-3-carboxylic acid], the GI50 in test [1] (setting [2]) amounted to 0.51 µM. In addition, on Mcl-1, the inhibition constant (Ki) worked out at 0.0021 µM.
The matching figures for `Cc1cc(OCCCc2c3n(c4c(-c5c(C)nc(CNC6CCN(C)CC6)nc5C)c(Cl)ccc24)[C@H](C)CN(c2cn(C)c4ccc(C(=O)O)cc24)C3=O)cc(C)c1Cl` [Example 437, (R)-3-(7-Chloro-10-(3-(4-chloro-3,5-dimethylphenoxy)propyl)-6-(4,6-dimethyl-2-(((1-methylpiperidin-4-yl)amino)methyl)pyrimidin-5-yl)-4-methyl-1-oxo-3,4-dihydropyrazino[1,2-a]indol-2(1H)-yl)-1-methyl-1H-indole-5-carboxylic acid]: 1.2 µM and 0.0047 µM.
For the compound `Cc1cc(OCCCc2c3n(c4c(-c5c(C)nn(C)c5C)c(Cl)ccc24)[C@H](C)CN(c2ccc(F)c4c(C(=O)O)c[nH]c24)C3=O)cc(C)c1Cl` [Example 438, (R)-7-(7-Chloro-10-(3-(4-chloro-3,5-dimethylphenoxy)propyl)-4-methyl-1-oxo-6-(1,3,5-trimethyl-1H-pyrazol-4-yl)-3,4-dihydropyrazino[1,2-a]indol-2(1H)-yl)-4-fluoro-1H-indole-3-carboxylic acid], the GI50 in test [1] (setting [2]) was found to be 2.8 µM. At Mcl-1, the inhibition constant (Ki) turned out to be 0.0011 µM.
Take `COCCN1CCN(Cc2nc(C)c(-c3c(Cl)ccc4c(CCCOc5cc(C)c(Cl)c(C)c5)c5n(c34)[C@H](C)CN(c3cn(C)c4ccc(C(=O)O)cc34)C5=O)c(C)n2)CC1` [Example 439, (R)-3-(7-Chloro-10-(3-(4-chloro-3,5-dimethylphenoxy)propyl)-6-(2-((4-(2-methoxyethyl)piperazin-1-yl)methyl)-4,6-dimethylpyrimidin-5-yl)-4-methyl-1-oxo-34-dihydropyrazino[1,2-a]indol-2(1H)-yl)-1-methyl-1H-indole-5-carboxylic acid]: in test [1] (H929 cells, 72 h, Cell TiterGlo, 10% FBS, read-out: GI50 on cellular proliferation of H929 human cancer cell lines), the GI50 is less than 0.2 µM. Besides, the Ki on Mcl-1 was found to be 0.0019 µM.
On to `Cc1cc(OCCCc2c3n(c4c(-c5c(C)nc(CN6CCNCC6)nc5C)c(Cl)ccc24)[C@H](C)CN(c2cn(C)c4ccc(C(=O)O)cc24)C3=O)cc(C)c1Cl` [Example 441, (R)-3-(7-Chloro-10-(3-(4-chloro-3,5-dimethylphenoxy)propyl)-6-(4,6-dimethyl-2-(piperazin-1-ylmethyl)pyrimidin-5-yl)-4-methyl-1-oxo-3,4-dihydropyrazino[1,2-a]indol-2(1H)-yl)-1-methyl-1H-indole-5-carboxylic acid], for which, in test [1] (setting [2]), the GI50 is 4.6 µM. For the same compound, the Ki on Mcl-1 came out at 0.007 µM.
For `Cc1cc(OCCCc2c3n(c4c(-c5c(C)nn(C)c5C)c(Cl)ccc24)[C@H](C)CN(c2cn(C)c4ccc(-c5noc(=O)[nH]5)cc24)C3=O)cc(C)c1Cl` [Example 442, (R)-3-(3-(7-Chloro-10-(3-(4-chloro-3,5-dimethylphenoxy)propyl)-4-methyl-1-oxo-6-(1,3,5-trimethyl-1H-pyrazol-4-yl)-3,4-dihydropyrazino[1,2-a]indol-2(1H)-yl)-1-methyl-1H-indol-5-yl)-1,2,4-oxadiazol-5(4H)-one] the same measures were 0.23 µM and 0.0023 µM.
Consider `Cc1cc(OCCCc2c3n(c4c(-c5c(C)nn(C)c5C)c(Cl)ccc24)[C@H](C)CN(c2cn(C)c4ccc(-c5n[nH]c(=O)o5)cc24)C3=O)cc(C)c1Cl` [Example 444, (R)-5-(3-(7-Chloro-10-(3-(4-chloro-3,5-dimethylphenoxy)propyl)-4-methyl-1-oxo-6-(1,3,5-trimethyl-1H-pyrazol-4-yl)-3,4-dihydropyrazino[1,2-a]indol-2(1H)-yl)-1-methyl-1H-indol-5-yl)-1,3,4-oxadiazol-2(3H)-one], for which the GI50 in test [1] (setting [2]) was 0.22 µM. The inhibition constant (Ki) on Mcl-1 is 0.0013 µM.
With `COc1ccc(N2C[C@@H](C)n3c(c(CCCOc4cc(C)c(Cl)c(C)c4)c4ccc(Cl)c(-c5c(C)nn(C)c5C)c43)C2=O)c2c1c(C(=O)O)cn2C` [Example 445, (R)-7-(7-Chloro-10-(3-(4-chloro-3,5-dimethylphenoxy)propyl)-4-methyl-1-oxo-6-(1,3,5-trimethyl-1H-pyrazol-4-yl)-3,4-dihydropyrazino[1,2-a]indol-2(1H)-yl)-4-methoxy-1-methyl-1H-indole-3-carboxylic acid], the GI50 in test [1] (setting [2]) came out at 0.82 µM. Further, the Ki on Mcl-1 came to 0.0022 µM.
As for `Cc1cc(OCCCc2c3n(c4c(-c5c(C)nn(C)c5C)c(Cl)ccc24)[C@H](C)CN(c2ccc(F)c4c(C(=O)O)cn(C)c24)C3=O)cc(C)c1Cl` [Example 447, (R)-7-(7-Chloro-10-(3-(4-chloro-3,5-dimethylphenoxy)propyl)-4-methyl-1-oxo-6-(1,3,5-trimethyl-1H-pyrazol-4-yl)-3,4-dihydropyrazino[1,2-a]indol-2(1H)-yl)-4-fluoro-1-methyl-1H-indole-3-carboxylic acid], the GI50 in test [1] (setting [2]) is 0.34 µM. The Ki at Mcl-1 was less than 0.001 µM.
For `Cc1cc(OCCCc2c3n(c4c(-c5c(C)nc(CN(C)CCN(C)C)nc5C)c(Cl)ccc24)[C@H](C)CN(c2cn(C)c4ccc(C(=O)O)cc24)C3=O)cc(C)c1Cl` [Example 448, (R)-3-(7-Chloro-10-(3-(4-chloro-3,5-dimethylphenoxy)propyl)-6-(2-(((2-(dimethylamino)ethyl)(methyl)amino)methyl)-4,6-dimethylpyrimidin-5-yl)-4-methyl-1-oxo-3,4-dihydropyrazino[1,2-a]indol-2(1H)-yl)-1-methyl-1H-indole-5-carboxylic acid], the GI50 in test [1] (setting [2]) was found to be 0.36 µM. On Mcl-1, the inhibition constant (Ki) turned out to be 0.0022 µM.
As to `Cc1cc(OCCCc2c3n(c4c(-c5c(C)nn(C)c5C)c(Cl)ccc24)[C@H](C)CN(c2cc(Cl)cc4c(C(=O)O)cn(C)c24)C3=O)cc(C)c1Cl` [Example 449, (R)-5Chloro-7-(7-chloro-10-(3-(4-chloro-3,5-dimethylphenoxy)propyl)-4-methyl-1-oxo-6-(1,3,5-trimethyl-1H-pyrazol-4-yl)-3,4-dihydropyrazino[1,2-a]indol-2(1H)-yl)-1-methyl-1H-indole-3-carboxylic acid], in test [1] (setting [2]), the GI50 was determined as 1.2 µM. Further, at Mcl-1, the Ki stood at 0.0026 µM.
The matching figures for `Cc1cnc(-c2ccc3c(c2)c(N2C[C@@H](C)n4c(c(CCCOc5cc(C)c(Cl)c(C)c5)c5ccc(Cl)c(-c6c(C)nn(C)c6C)c54)C2=O)cn3C)nc1` [Example 450, (R)-7-Chloro-10-(3-(4-chloro-3,5-dimethylphenoxy)propyl)-4-methyl-2-(1-methyl-5-(5-methylpyrimidin-2-yl)-1H-indol-3-yl)-6-(1,3,5-trimethyl-1H-pyrazol-4-yl)-3,4-dihydropyrazino[1,2-a]indol-1(2H)-one]: 1.1 µM and 0.0022 µM.
